System: balb c 3T3 fibroblasts
Assay: Inhibition of PDGF-stimulated balb c 3T3 fibroblast proliferation (3H-thymidine incorporation)
Format: cell-based
Details: Mus musculus, BALB/c3T3; ^3 H-thymidine incorporation stimulated by PDGF in balb c 3T3 fibroblasts
Protocol: Measurement of inhibition of the balb c 3T3 fibroblast proliferation induced by a growth factor […]
Inhibition of the cell proliferation induced by a growth factor (for example PDGF) is evaluated by measuring the ^3 H-thymidine incorporation into balb c 3T3 fibroblasts.
The balb c 3T3 fibroblasts are cultivated at 37° C. with 5% of CO2 up to the point of subconfluence and are then placed for 24 hours under rest conditions in a serum-impoverished medium. They are subsequently pretreated for one hour with the test molecule and then stimulated for 24 hours with a growth factor (for example PDGF). ^3 H-Thymidine is incorporated over the last 2 hours. All these steps are performed at 37° C. with 5% of CO2.
The reaction is terminated by sucking off the reaction medium, detaching the cells and then filtering the lyzed cells through glass fiber filters.
The results are expressed as the percentage inhibition of the stimulation of ^3 H-thymidine incorporation due to the action of the growth factor.

Compound	IC50
N#CC(=Cc1cc2cccnc2n(-c2cc(Cl)cc(Cl)c2)c1=O)c1cccnc1 [Example 78, 3-[1-(3,5-dichlorophenyl)-1,2-dihydro-2-oxo-1,8-naphthyridin-3-yl]-2-(3-pyridyl)prop-2-enenitrile]	300 nM
N#CC(=Cc1cc2cccnc2n(-c2cc(Cl)cc(Cl)c2)c1=O)c1ccncc1 [Example 81, 3-[1-(3,5-dichlorophenyl)-1,2-dihydro-2-oxo-1,8-naphthyridin-3-yl]-2-(4-pyridyl)prop-2-enenitrile]	200 nM
